Calls of active or inactive are those of the source.
Legend:
[1] = non-specific cell cytotoxicity, dose response, cytotoxicity control for PAX8 inhibitor project, plate reader, dry powder samples (AID 743021); assay type: functional, cell-based
Paired box protein Pax-8 = Paired box protein Pax-8 (Homo sapiens, UniProt Q06710); experiment: inhibitors of PAX8-driven TPO luciferase reporter, dose response, RMG-I cells, cherry-pick (AID 687027); assay type: functional, cell-based;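 also: luciferase reporter driven by Pax8 target thyroperoxidase promoter measured by SteadyGlo luminescence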
[2] = NIH:OVCAR-3 ovarian cancer cell cytotoxicity, dose response, PAX8 inhibitor project, plate reader, dry powder samples (AID 743044); assay type: functional, cell-based
[3] = HepG2 cell cytotoxicity, dose response, cytotoxicity control, ATP luminescence, cherry-pick, activator set 2 (AID 1053143); assay type: functional, cell-based
[4] = Luminescence Cell-Based Dose Confirmation HTS to Identify Inhibitors of Platelet Dense Granule Release. [Related pubchem assays: 1663 (Primary HTS), 1678 (Summary of Project)]; assay type: functional
[5] = target: Luciferin 4-monooxygenase (Photinus pyralis, UniProt P08659); experiment: firefly luciferase enzyme inhibitors, dose response, biochemical, luminescence (AID 1891)
[6] = target: Tyrosyl-DNA phosphodiesterase 2 (Homo sapiens, UniProt O95551); experiment: human TDP2 enzyme inhibitors, dose response, biochemical, epi absorbance, IC50 (AID 743297)
[7] = target: T1, Rac GTPase-activating protein 1 (Homo sapiens, UniProt Q9H0H5); experiment: MgcRacGAP GTPase-activating activity inhibitors, confirmation, biochemical, ADP Hunter fluorescence, primary and confirmatory (AID 624330); assay type: functional
T1 sequence (Q9H0H5 whole entry): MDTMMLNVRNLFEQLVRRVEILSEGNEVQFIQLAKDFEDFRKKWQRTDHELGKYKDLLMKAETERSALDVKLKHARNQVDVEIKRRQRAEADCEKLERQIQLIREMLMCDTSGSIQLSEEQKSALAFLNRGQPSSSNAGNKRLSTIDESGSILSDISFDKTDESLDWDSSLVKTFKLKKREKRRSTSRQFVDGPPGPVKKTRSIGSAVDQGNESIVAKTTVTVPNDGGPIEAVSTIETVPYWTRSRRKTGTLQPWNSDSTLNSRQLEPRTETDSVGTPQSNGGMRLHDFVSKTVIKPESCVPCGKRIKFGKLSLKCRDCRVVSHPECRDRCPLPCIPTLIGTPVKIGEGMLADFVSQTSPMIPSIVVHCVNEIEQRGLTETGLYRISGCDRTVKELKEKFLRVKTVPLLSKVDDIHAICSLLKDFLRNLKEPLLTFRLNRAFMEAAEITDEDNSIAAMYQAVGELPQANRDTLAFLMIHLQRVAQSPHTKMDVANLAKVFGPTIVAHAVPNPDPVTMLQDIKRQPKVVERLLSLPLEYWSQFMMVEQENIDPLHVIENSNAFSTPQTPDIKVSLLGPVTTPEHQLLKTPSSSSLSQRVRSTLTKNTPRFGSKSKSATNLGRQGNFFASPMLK

[8] = HeLa cell cytotoxicity, dose response, cytotoxicity control for MgcRacGAP inhibitor project (AID 624300); assay type: functional
[9] = target: T2, Heat shock factor protein 1 (Mus musculus, UniProt P38532); experiment: HSF1 potentiators in luciferase reporter cells, confirmation, cell-based, NIH3T3, luminescence, dose retest (AID 435004); assay type: functional;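 also: stress induced by proteasome inhibitor MG132 added 30 min after compound; luciferase reporter driven by HSF1 response element in NIH3T3 cells; actives raise luminescence as potentiators of the MG132 stress response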
T2 sequence (P38532 whole entry): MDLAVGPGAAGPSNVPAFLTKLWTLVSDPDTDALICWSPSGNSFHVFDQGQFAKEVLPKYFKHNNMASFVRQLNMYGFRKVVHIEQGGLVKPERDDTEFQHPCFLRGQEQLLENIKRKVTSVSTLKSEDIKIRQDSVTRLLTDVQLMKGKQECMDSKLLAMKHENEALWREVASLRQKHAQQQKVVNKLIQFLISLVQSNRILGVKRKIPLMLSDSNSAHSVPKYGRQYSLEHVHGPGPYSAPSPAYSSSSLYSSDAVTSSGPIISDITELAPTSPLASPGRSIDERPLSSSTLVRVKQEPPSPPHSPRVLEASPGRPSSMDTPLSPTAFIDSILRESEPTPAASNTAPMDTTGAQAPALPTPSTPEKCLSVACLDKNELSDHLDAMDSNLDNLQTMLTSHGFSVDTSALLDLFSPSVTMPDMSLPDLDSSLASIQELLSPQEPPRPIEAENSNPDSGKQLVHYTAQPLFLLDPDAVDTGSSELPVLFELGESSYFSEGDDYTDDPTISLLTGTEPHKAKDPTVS

Mu-type opioid receptor = Mu-type opioid receptor (Homo sapiens, UniProt P35372); assay type: functional, cell-based;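 also: U2OS cells with beta-arrestin recruitment to OPRM1 by beta-gal complementation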
[10] = target: 5-hydroxytryptamine receptor 2A (Mus musculus, UniProt P35363); assay type: functional, cell-based;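 also: CHO-K1 cells with tagged receptor and beta-arrestin; agonist potency measured as compound-induced activation of the receptor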
Streptokinase A = target: T3, Streptokinase A (Streptococcus pyogenes serotype M1, UniProt P10520); experiment: S. pyogenes streptokinase expression inhibitors, potency, dose response, plasminogen activation absorbance, OD405 (AID 1914); assay type: functional, Streptococcus pyogenes M1 GAS;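 also: secreted streptokinase activity via plasminogen activation per viability signal from cell pellet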
T3 sequence (P10520 whole entry): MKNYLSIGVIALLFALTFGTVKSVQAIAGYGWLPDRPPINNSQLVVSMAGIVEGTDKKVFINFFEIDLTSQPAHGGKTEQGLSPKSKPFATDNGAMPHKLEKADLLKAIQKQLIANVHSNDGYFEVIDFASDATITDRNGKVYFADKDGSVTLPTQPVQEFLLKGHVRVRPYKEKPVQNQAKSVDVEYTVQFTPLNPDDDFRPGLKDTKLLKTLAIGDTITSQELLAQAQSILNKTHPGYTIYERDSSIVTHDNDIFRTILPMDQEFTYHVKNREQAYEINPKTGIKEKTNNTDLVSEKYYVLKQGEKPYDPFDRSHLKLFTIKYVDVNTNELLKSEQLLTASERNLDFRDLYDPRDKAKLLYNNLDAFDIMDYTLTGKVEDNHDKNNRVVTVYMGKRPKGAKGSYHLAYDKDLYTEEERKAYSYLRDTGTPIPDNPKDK

[11] = A cytotoxicity screen of small molecule inhibitors of the PhoP region in Salmonella typhi identified in the primary screen. [Related pubchem assays: 1850, 1864, 1985 ]; assay type: functional
[12] = target: T4, Sentrin-specific protease 8 (Homo sapiens, UniProt Q96LD8); assay type: functional
T4 sequence (Q96LD8 whole entry): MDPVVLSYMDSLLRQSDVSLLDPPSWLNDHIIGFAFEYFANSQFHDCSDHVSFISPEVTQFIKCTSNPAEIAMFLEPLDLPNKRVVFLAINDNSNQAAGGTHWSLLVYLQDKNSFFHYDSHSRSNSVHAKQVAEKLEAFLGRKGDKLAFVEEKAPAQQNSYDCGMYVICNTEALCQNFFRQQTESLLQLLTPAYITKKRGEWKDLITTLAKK

Streptococcus = experiment: Group A Streptococcus viability loss, dose response, counter-screen for streptokinase expression inhibitor project, luminescence, BacTiterGlo (AID 1915); assay type: functional, organism-based;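 also: potency for reduction of bacterial viability or growth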
[13] = test system: Streptococcus sp. 'group A'; experiment: growth inhibition of control SK(-) GAS strain, dose response, counter-screen for streptokinase expression inhibitor project, luminescence, kanamycin, BacTiterGlo, confirmation (AID 1900); assay type: functional, organism-based
[14] = target: T4, Sentrin-specific protease 8; assay type: functional; remark: listed apart in the source

Sequence of Mu-type opioid receptor (P35372 whole entry): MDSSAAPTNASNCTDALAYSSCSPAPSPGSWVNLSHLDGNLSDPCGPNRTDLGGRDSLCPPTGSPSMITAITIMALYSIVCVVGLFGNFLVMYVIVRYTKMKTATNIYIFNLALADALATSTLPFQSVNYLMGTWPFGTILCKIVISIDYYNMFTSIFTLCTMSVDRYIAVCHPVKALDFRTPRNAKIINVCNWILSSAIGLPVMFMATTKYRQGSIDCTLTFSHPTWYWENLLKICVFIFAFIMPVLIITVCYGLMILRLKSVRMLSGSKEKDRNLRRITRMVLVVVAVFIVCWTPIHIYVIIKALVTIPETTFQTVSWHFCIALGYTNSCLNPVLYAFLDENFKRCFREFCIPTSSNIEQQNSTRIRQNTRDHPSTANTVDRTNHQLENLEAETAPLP
Sequence of 5-hydroxytryptamine receptor 2A (P35363 whole entry): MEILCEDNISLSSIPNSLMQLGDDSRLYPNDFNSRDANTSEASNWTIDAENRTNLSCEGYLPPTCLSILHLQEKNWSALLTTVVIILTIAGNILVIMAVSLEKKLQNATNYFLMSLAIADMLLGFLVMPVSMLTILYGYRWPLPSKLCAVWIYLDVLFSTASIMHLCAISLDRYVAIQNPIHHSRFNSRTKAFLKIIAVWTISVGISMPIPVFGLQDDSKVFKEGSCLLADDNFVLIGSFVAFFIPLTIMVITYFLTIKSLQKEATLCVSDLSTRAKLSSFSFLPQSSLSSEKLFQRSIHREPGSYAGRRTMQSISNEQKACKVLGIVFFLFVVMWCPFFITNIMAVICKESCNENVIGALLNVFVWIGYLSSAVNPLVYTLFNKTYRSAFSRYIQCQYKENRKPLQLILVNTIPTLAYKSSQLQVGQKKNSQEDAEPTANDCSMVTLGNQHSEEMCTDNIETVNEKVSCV
Sequence of Paired box protein Pax-8 (Q06710 whole entry): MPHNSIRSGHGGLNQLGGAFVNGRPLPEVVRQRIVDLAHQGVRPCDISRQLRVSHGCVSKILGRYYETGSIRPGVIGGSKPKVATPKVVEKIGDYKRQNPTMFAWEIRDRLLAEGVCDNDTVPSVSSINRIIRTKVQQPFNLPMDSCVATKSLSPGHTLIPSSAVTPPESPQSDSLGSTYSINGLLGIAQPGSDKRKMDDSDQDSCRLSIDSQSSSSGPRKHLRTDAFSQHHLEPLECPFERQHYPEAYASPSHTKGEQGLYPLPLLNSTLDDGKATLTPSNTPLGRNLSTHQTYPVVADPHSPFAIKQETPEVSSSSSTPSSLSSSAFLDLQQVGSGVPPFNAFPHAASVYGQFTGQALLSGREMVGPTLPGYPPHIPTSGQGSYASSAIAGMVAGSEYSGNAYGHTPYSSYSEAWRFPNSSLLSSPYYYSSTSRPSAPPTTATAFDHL
Sequence of Luciferin 4-monooxygenase (P08659 whole entry): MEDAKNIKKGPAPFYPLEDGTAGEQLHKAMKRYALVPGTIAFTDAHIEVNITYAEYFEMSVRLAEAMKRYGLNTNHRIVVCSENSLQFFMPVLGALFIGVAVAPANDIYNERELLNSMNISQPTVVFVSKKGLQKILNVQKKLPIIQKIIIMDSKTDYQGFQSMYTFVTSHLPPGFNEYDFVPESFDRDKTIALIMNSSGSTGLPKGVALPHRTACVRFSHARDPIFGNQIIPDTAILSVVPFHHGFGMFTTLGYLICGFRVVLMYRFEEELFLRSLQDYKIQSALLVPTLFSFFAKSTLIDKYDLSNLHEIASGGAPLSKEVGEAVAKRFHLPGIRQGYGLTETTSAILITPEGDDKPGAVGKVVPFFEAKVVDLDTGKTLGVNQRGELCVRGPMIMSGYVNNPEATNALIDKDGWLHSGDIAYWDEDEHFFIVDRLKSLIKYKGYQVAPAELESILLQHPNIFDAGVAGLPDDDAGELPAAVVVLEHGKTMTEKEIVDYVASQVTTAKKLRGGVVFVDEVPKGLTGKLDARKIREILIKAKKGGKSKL
Sequence of Tyrosyl-DNA phosphodiesterase 2 (O95551 whole entry): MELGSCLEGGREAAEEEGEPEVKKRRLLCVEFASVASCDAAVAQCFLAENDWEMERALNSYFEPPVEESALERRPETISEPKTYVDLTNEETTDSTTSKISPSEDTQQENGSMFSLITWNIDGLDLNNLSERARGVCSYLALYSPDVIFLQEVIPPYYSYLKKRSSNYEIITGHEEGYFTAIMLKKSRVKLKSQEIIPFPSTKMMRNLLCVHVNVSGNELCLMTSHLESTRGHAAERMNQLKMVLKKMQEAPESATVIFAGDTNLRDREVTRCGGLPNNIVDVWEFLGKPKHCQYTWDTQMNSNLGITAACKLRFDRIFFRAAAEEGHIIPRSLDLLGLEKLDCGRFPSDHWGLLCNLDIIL

Compound: O=C1CN(S(=O)(=O)Cc2ccccc2)C[C@H]2[C@H](c3ccc(C#Cc4ccc(F)cc4)cc3)[C@H](CO)N12
- AC50 [1]: 56 µM (active)
- AC50 (Paired box protein Pax-8): 8.12 µM (active)
- AC50 [2]: 32.6 µM (active)

Compound: CCOC(=O)c1sc(NC(=O)c2sccc2C)cc1C
- AC50 [3]: 12.8 µM (active)
- EC50 [4]: 3.04 µM (active)
- EC50 [5]: 0.409 µM (active)

Compound: S=C(Nc1ccc2nsnc2c1)N1CCCC1
- IC50 [6]: > 128 µM (inactive)

Compound: O=S(=O)(c1ccc(Cl)c(NC(=S)N/N=C/c2ccc(O)cc2)c1)N1CCOCC1
- IC50 [7]: 47.6 µM (active)
- CC50 [8]: 45.7 µM (active)
- EC50 [9]: > 260 µM (inactive)

Compound: c1ccc(CN2CCN(c3ncccn3)CC2)cc1
- EC50 (Mu-type opioid receptor): 92.5 µM (inactive)
- EC50 [10]: 0.235 µM (active)

Compound: O=[N+]([O-])c1ccc(/C=[N+](\[O-])CCO)o1
- EC50 (Streptokinase A): > 150 µM (not active)
- EC50 [11]: > 50 µM (active)
- IC50 [12]: 16.7 µM (active)
- EC50 (Streptococcus): 9.91 µM (active)
- EC50 [13]: 3.97 µM (active)
- IC50 [14]: 43.4 µM (active)

Reference: ChEMBL document CHEMBL1201862, “PubChem BioAssay data set” (2004)
